Results published in paper PMC11070402, “New antiproliferative 3-substituted oxindoles inhibiting EGFR/VEGFR-2 and tubulin polymerization” (Molecular Diversity, 2023).
“And” between values parts separate entries of the source, which are not always exact repeats. Equal entries are not always repeated. Where two headings read alike, the source gives them in different places.

What was measured:
K-562 = assay: NCI one-dose assay, K-562; format: cell-based; conditions: Homo sapiens, K562; K-562; 10 µM single dose, 48 h incubation; read-out: cell growth inhibition % (GI %)
Experimental: (§1) All novel scaffolds 6a–j were carefully selected by the National Cancer Institute (NCI), Bethesda, USA, to elucidate their cytotoxic activity versus 60 human cancer cell lines at 10 µM as a single-dose concentration after a 48 h incubation period.
(§2) National Cancer Institution selected all the synthesized 6a–j (NCI), Bethesda, USA, for in vitro one-dose antitumor assay. The methodology protocol for the NCI anticancer screening was reported in detail elsewhere (http://www.dtp.nci.nih.gov). The anticancer assay was performed in full NCI 60 cell lines extracted from nine tumor cell lines, including leukemia, melanoma, lung, colon, CNS, ovarian, renal, prostate, and breast cancer cell lines.

LOX IMVI = assay: NCI one-dose assay, LOX IMVI; format: cell-based; conditions: Homo sapiens; LOX IMVI; 10 µM single dose, 48 h incubation; read-out: cell growth inhibition % (GI %)
Experimental: as §1, §2

MCF-7 = assay: NCI one-dose assay, MCF-7; format: cell-based, human; conditions: MCF-7, 10 µM single dose, 48 h incubation
Experimental: as §1, §2

SR = assay: NCI one-dose assay, SR; format: cell-based; conditions: Homo sapiens; SR; 10 µM single dose, 48 h incubation; read-out: cell growth inhibition % (GI %)
Experimental: as §1, §2

MOLT-4 = assay: NCI one-dose assay, MOLT-4; format: cell-based; conditions: Homo sapiens; MOLT-4; 10 µM single dose, 48 h incubation; read-out: cell growth inhibition % (GI %)
Experimental: as §1, §2

UO-31 = assay: NCI one-dose assay, UO-31; format: cell-based; conditions: Homo sapiens; UO-31; 10 µM single dose, 48 h incubation; read-out: cell growth inhibition % (GI %)
Experimental: as §1, §2

[1] = tested on: MCF-7 (human breast cancer); assay: Cytotoxicity versus MCF-7 cell line (MTT assay); conditions: MCF7, read-out: MCF-7 (IC50 ± SD, uM)
Experimental: IC50 values were recorded using the Boltzman sigmoidal concentration–response curve equation using the nonlinear regression fitting models by GraphPad, Prism version 5 (GraphPad Software Inc., La Jolla, CA). MTT assay for MCF-7 cell lines. Cell line cells were obtained from American Type Culture Collection. Cells were cultured using DMEM media (Invitrogen/Life Technologies) supplemented with 10% FBS (Hyclone), 10 ug/ml of insulin (Sigma), and 1% penicillin–streptomycin. All the other chemicals and reagents were purchased from Sigma or Invitrogen. Cells were seeded in plates (cells density 1.2–1.8 × 10,000 cells/well) in a volume of 100 μl full-growth medium + 100 μl of the tested scaffold per well in a 96-well plate for 24 h before the application of the MTT assay protocol as reported, supplementary information.

[2] = tested on: SNB-75 cells (CNS cancer cell line); assay: NCI one-dose assay, SNB-75; format: cell-based; conditions: Homo sapiens; SNB-75 (CNS Cancer), 10 uM single dose; read-out: Growth inhibition %
Experimental: as §1, §2

A549/ATCC = assay: NCI one-dose assay, A549/ATCC; format: cell-based; conditions: Homo sapiens, 10 µM single dose, 48 h incubation, read-out: cell growth inhibition % (GI %)
Experimental: as §1, §2

T-47D = assay: NCI one-dose assay, T-47D; format: cell-based; conditions: Homo sapiens, T47D; T-47D; 10 µM single dose, 48 h incubation; read-out: cell growth inhibition % (GI %)
Experimental: as §1, §2

SK-MEL-5 = assay: NCI one-dose assay, SK-MEL-5; format: cell-based; conditions: Homo sapiens; SK-MEL-5; 10 µM single dose, 48 h incubation; read-out: cell growth inhibition % (GI %)
Experimental: as §1, §2

[3] = tested on: HOP-92 (non-small cell lung cancer cell line); assay: NCI one-dose assay, HOP-92; format: cell-based; conditions: Homo sapiens; HOP-92 (Non-Small Cell Lung Cancer), 10 uM single dose; read-out: Growth inhibition %
Experimental: as §1, §2

[4] = tested on: 60 human cancer cell lines; assay: NCI one-dose assay against sixty NCI cancer cell lines; format: cell-based
Experimental: as §1, §2

NCI-H23 = assay: NCI one-dose assay, NCI-H23; format: cell-based; conditions: Homo sapiens; NCI-H23; 10 µM single dose, 48 h incubation; read-out: cell growth inhibition % (GI %)
Experimental: as §1, §2

## O=C1Nc2cc(Cl)ccc2C1=Cc1ccc(OCC(=O)c2ccc(Br)cc2)cc1 [Compound 6g, 6-Chloro-3-{4-[2-(4-bromophenyl)-2-oxoethoxy]benzylidene}indolin-2-one]
K-562
  inhibition at 10 µM: 58.3%
LOX IMVI
  inhibition at 10 µM: 45.8%
MCF-7; Homo sapiens, MCF7, 48 h, read-out: cell growth inhibition % (GI %)
  inhibition at 10 µM: 70.3%
MCF-7
  cell growth inhibition % (GI %): 70.03% and 71.12%
SR
  inhibition at 10 µM: 59.7%
MOLT-4
  inhibition at 10 µM: 61.6%
UO-31
  inhibition at 10 µM: 59.4%
[1]
  IC50: 25.4 ± 1.23 µM
[2]
  inhibition at 10 µM: 31.1%
A549/ATCC
  inhibition at 10 µM: 49.9%
T-47D
  inhibition at 10 µM: 55.2%
SK-MEL-5
  inhibition at 10 µM: 61.2%
[3]
  inhibition at 10 µM: 30.8%
[4]; 786-0 (Renal Cancer), 10 uM single dose, read-out: Growth inhibition %
  inhibition at 10 µM: 15.6%
[4]; ACHN (Renal Cancer), 10 uM single dose, read-out: Growth inhibition %
  inhibition at 10 µM: 31.2%
[4]; BT-549 (Breast Cancer), 10 uM single dose, read-out: Growth inhibition %
  inhibition at 10 µM: 44.3%
[4]; CAKI-1 (Renal Cancer), 10 uM single dose, read-out: Growth inhibition %
  inhibition at 10 µM: 47.6%
[4]; CCRF-CEM (Leukemia), 10 uM single dose, read-out: Growth inhibition %
  inhibition at 10 µM: 34.3%
[4]; COLO 205 (Colon Cancer), 10 uM single dose, read-out: Growth inhibition %
  inhibition at 10 µM: 44.7%
[4]; DU-145 (Prostate Cancer), 10 uM single dose, read-out: Growth inhibition %
  inhibition at 10 µM: 12.4%
[4]; EKVX (Non-Small Cell Lung Cancer), 10 uM single dose, read-out: Growth inhibition %
  inhibition at 10 µM: 43.8%
[4]; HCC-2998 (Colon Cancer), 10 uM single dose, read-out: Growth inhibition %
  inhibition at 10 µM: 17.5%
[4]; HCT-15 (Colon Cancer), 10 uM single dose, read-out: Growth inhibition %
  inhibition at 10 µM: 46.9%
[4]; HCT-116 (Colon Cancer), 10 uM single dose, read-out: Growth inhibition %
  inhibition at 10 µM: 42.1%
[4]; HL-60(TB) (Leukemia), 10 uM single dose, read-out: Growth inhibition %
  inhibition at 10 µM: 53.8%
[4]; HS 578T (Breast Cancer), 10 uM single dose, read-out: Growth inhibition %
  inhibition at 10 µM: 22.4%
[4]; HT-29, HT29 (Colon Cancer), 10 uM single dose, read-out: Growth inhibition %
  inhibition at 10 µM: 16.1%
[4]; IGROV-1, IGROV1 (Ovarian Cancer), 10 uM single dose, read-out: Growth inhibition %
  inhibition at 10 µM: 34.6%
[4]; KM12 (Colon Cancer), 10 uM single dose, read-out: Growth inhibition %
  inhibition at 10 µM: 28.7%
[4]; M14 (Melanoma), 10 uM single dose, read-out: Growth inhibition %
  inhibition at 10 µM: 31.1%
[4]; MALME-3M (Melanoma), 10 uM single dose, read-out: Growth inhibition %
  inhibition at 10 µM: 12.9%
[4]; MDA-MB-231, read-out: Growth inhibition %
  inhibition at 10 µM: 23.4%
[4]; MDA-MB-435 (Melanoma), 10 uM single dose, read-out: Growth inhibition %
  inhibition at 10 µM: 24.8%
[4]; MDA-MB-468 (Breast Cancer), 10 uM single dose, read-out: Growth inhibition %
  inhibition at 10 µM: 42.3%
[4]; NCI-H226 (Non-Small Cell Lung Cancer), 10 uM single dose, read-out: Growth inhibition %
  inhibition at 10 µM: 37.9%
[4]; NCI-H322M (Non-Small Cell Lung Cancer), 10 uM single dose, read-out: Growth inhibition %
  inhibition at 10 µM: 18.1%
[4]; NCI-H460 (Non-Small Cell Lung Cancer), 10 uM single dose, read-out: Growth inhibition %
  inhibition at 10 µM: 41%
[4]; NCI-H522 (Non-Small Cell Lung Cancer), 10 uM single dose, read-out: Growth inhibition %
  inhibition at 10 µM: 49.4%
[4]; OVCAR-3 (Ovarian Cancer), 10 uM single dose, read-out: Growth inhibition %
  inhibition at 10 µM: 15.7%
[4]; OVCAR-4 (Ovarian Cancer), 10 uM single dose, read-out: Growth inhibition %
  inhibition at 10 µM: 44.5%
[4]; OVCAR-5 (Ovarian Cancer), 10 uM single dose, read-out: Growth inhibition %
  inhibition at 10 µM: 13.9%
[4]; OVCAR-8 (Ovarian Cancer), 10 uM single dose, read-out: Growth inhibition %
  inhibition at 10 µM: 30.7%
[4]; PC-3 (Prostate Cancer), 10 uM single dose, read-out: Growth inhibition %
  inhibition at 10 µM: 51.4%
[4]; RPMI-8226 (Leukemia), 10 uM single dose, read-out: Growth inhibition %
  inhibition at 10 µM: 43.6%
[4]; RXF 393 (Renal Cancer), 10 uM single dose, read-out: Growth inhibition %
  inhibition at 10 µM: 44.8%
[4]; SF-268 (CNS Cancer), 10 uM single dose, read-out: Growth inhibition %
  inhibition at 10 µM: 22%
[4]; SF-295 (CNS Cancer), 10 uM single dose, read-out: Growth inhibition %
  inhibition at 10 µM: 45.1%
[4]; SF-539 (CNS Cancer), 10 uM single dose, read-out: Growth inhibition %
  inhibition at 10 µM: 30.6%
[4]; SK-MEL-2 (Melanoma), 10 uM single dose, read-out: Growth inhibition %
  inhibition at 10 µM: 29.8%
[4]; SK-MEL-28 (Melanoma), 10 uM single dose, read-out: Growth inhibition %
  inhibition at 10 µM: 19.4%
[4]; SN12C (Renal Cancer), 10 uM single dose, read-out: Growth inhibition %
  inhibition at 10 µM: 45.2%
[4]; SNB-19 (CNS Cancer), 10 uM single dose, read-out: Growth inhibition %
  inhibition at 10 µM: 18.5%
[4]; SW-620 (Colon Cancer), 10 uM single dose, read-out: Growth inhibition %
  inhibition at 10 µM: 14.1%
[4]; U-251, U251 (CNS Cancer), 10 uM single dose, read-out: Growth inhibition %
  inhibition at 10 µM: 25.8%
[4]; UACC-62 (Melanoma), 10 uM single dose, read-out: Growth inhibition %
  inhibition at 10 µM: 42%
[4]; UACC-257 (Melanoma), 10 uM single dose, read-out: Growth inhibition %
  inhibition at 10 µM: 27.1%
NCI-H23
  inhibition at 10 µM: 46.8%
